Reference: patent US20140051701A1, “METHODS OF TREATING A DISEASE OR CONDITION OF THE CENTRAL NERVOUS SYSTEM” (Bionomics Limited, priority 2011, published 2014)
Entries after “also recorded” stand apart in the source; their conditions may differ.

Tests used:
[1] = test system: rat primary cortical neurons; experiment: Neurite outgrowth assay in cortical neuron culture; type: cell-based; conditions: for minimal effective concentration: Rattus norvegicus, Primary cortical neuron, 72 h, 3 days exposure of cortical neurons, read-out: concentration giving significant neurite outgrowth; for effect on neurite outgrowth, substance alone: primary cortical neurons; for block of Compound 1-induced enhancement of neurite outgrowth by PLC inhibitor: inhibitor in combination with Compound 1
Procedure: Female rats of 17 days gestation were killed by cervical dislocation and the foetuses were removed from the uterus. Their brains were placed in ice-cold medium of Leibovitz (L15, Gibco, Fisher bioblock, France). Cortex were dissected and meninges were carefully removed. The cortical neurons were dissociated by trypsinization for 30 min at 37° C. (trypsin-EDTA Gibco) in presence of 0.1 mg/ml DNAse I (Roche, France). The reaction was stopped by addition of in medium of Eagle modified by Dulbecco (DMEM; Gibco) with 10% of fetal bovine serum (FBS; Gibco). The suspension was triturated with a 10-ml pipette and using a needle syringe 21G and centrifuged at 350×g for 10 min at room temperature. The pellet of dissociated cells was resuspended in a medium consisting of Neurobasal (Gibco) supplemented with 2% B27 supplement (Gibco), 0.5 mM L-Glutamine (Gibco), an antibiotic-antimicotic mixture. Viable cells were counted in a Neubauer cytometer using the trypan blue exclusion test (Sigma). Cells were seeded on the basis of 30000 cells per Petri dish (ø35 mm, Nunc) precoated with poly-L-lysine.
Cells were allowed to adhere 2 h and maintained in a humidified incubator at 37° C. in 5% CO2-95% air atmosphere.
After neuronal adhesion (2 h after the plating), cultures were exposed to Compound 1 or BDNF for a period of 3 days.
After the 3 days exposure of the neurons to the test compounds, cultures were washed with phosphate-buffered saline (PBS, Gibco) and fixed using 2.5% glutaraldehyde in PBS. Several pictures (˜80) of neurons with neurites without any branching were taken per condition using a digital camera (Coolpix 995; Nikon) mounted on the microscope (Nikon, objective 40×). Neurites were outlined on computer screen using imaging software (Image-Pro Plus, France), which automatically calculates the length.
A global analysis of the data was performed using a one way analysis of variance (ANOVA), followed by Fisher's Protected Least Significant Difference when applicable. The level of significance was set to p<0.05. All results were expressed as mean±sem. N=˜180 cells
The compound of example 1h was tested at 0.1 nM, 1 nM, 10 nM, 100 nM and 1000 nM on two independent cultures comprising 2 Petri dishes per culture and per condition. In parallel, BDNF was tested at 50 ng/ml.

[2] = Non-precipitated withdrawal (physical dependence) after 14-day dosing; type: in vivo, rat; conditions: 14 days at 10, 30 and 100 mg/kg/day; 5 days post-treatment; versus no-drug group; listed as Compound 1
From the text: Sudden discontinuation of antidepressant medication may produce withdrawal effects caused by physical dependence on the drug. Compounds can be evaluated for physical dependence in a simple animal model where, following a period of chronic dosing (e.g., for 14-20 days), the study drug is stopped and measurements of food intake, body weight and body temperature are taken over the next 5 days. […] This model is suitable for detecting the effects across a broad range of drug classes including opiates, antidepressants and benzodiazepines. […]
Rats treated chronically (14-20 days) with opioids, benzodiazepines Or SSRIs display adverse physical effects after non-precipitated withdrawal of the drugs. The potential consequences of abrupt cessation of dosing with Compound 1 was assessed following 14 days of treatment at 0, 10, 30 and 100 mg/kg/day.

[3] = test system: mouse; experiment: Mouse light dark box model; type: in vivo
Procedure: U73122 was then examined for an in vivo effect on the activity of Example 1 in the mouse light dark box. U73122 was given IP at 30 mg/kg, 120 minutes prior to testing. Compound 1 was dosed orally at 10 mg/kg, 60 minutes prior to testing. […] This experiment was repeated using the anxiolytic compound diazepam to determine whether the activity of U73122 was specific to Compound 1 (FIG. 5).

## CCn1cc(C(=O)NC2CC2)c(=O)c2cc(NC3Cc4ccccc4C3)cnc21 [Example 3, Cyclopropylamino 6-(2,3-dihydro-1H-inden-2-ylamino)-1-ethyl-1,4-dihydro-4-oxo-1,8-naphthyridine-3-carboxamide]
[1]
  minimal effective concentration: < 0.1 µM

## CCn1cc(C(=O)N2CCOCC2)c(=O)c2cc(NC3Cc4ccccc4C3)cnc21 [Example 1h]
[2]
  changes in body temperature, weight gain or food consumption after withdrawal: does not produce signs of withdrawal; also recorded: did not produce significant changes
[1]
  minimal effective concentration: < 0.1 µM
  effect on neurite outgrowth, substance alone: enhancement of neurite outgrowth
[3]; 10 mg/kg orally, 60 minutes prior to testing
  anxiolytic activity: robust anxiolytic activity

## CCn1cc(C(=O)N2CCOCC2)c(=O)c2cc(N)cnc21 [Example 4, Morpholino 6-amino-1-ethyl-1,4-dihydro-4-oxo-1,8-naphthyridine-3-carboxamide]
[1]
  minimal effective concentration: < 0.1 µM

## COc1ccc2c(c1)CC[C@@H]1[C@@H]2CC[C@]2(C)[C@@H](NCCCCCCN3C(=O)C=CC3=O)CC[C@@H]12 [Example U73122, reference compound]
[1]; U73122 at 1 μM, Compound 1 10 nM
  block of Compound 1 activity on neurite outgrowth: significant block
[1]; U73122 tested over 30 nM to 1 μM with Compound 1 10 nM
  concentration at which full block of Compound 1 activity occurs: 100 nM
[1]
  block of Compound 1-induced enhancement of neurite outgrowth by PLC inhibitor: blocked; also recorded: dose-related block
[3]; U73122 30 mg/kg IP in combination with 10 mg/kg p.o. Compound 1
  effect on anxiolytic activity of Compound 1: blocks; also recorded: fully blocked the anxiolytic effect
[3]; U73122 30 mg/kg IP, 120 minutes prior to testing
  effect on the Time, Entries or Distance parameters, alone: did not have any effect
[3]; U73122 30 mg/kg i.p. with diazepam 1 mg/kg p.o.
  effect on the animals' responses to diazepam: did not cause any change

## CCOC(=O)c1cn(CC)c2ncc(NC3Cc4ccccc4C3)cc2c1=O [Example 1g, Ethyl 6-(2,3-dihydro-1H-inden-2-ylamino)-1-ethyl-1,4-dihydro-4-oxo-1,8-naphthyridine-3-carboxylate]
[1]
  minimal effective concentration: < 0.1 µM

## CCn1cc(C(=O)Nc2ccc(F)cc2)c(=O)c2cc(NC3Cc4ccccc4C3)cnc21 [Example 5, 4-fluorophenylamine 6-(2,3-dihydro-1H-inden-2-ylamino)-1-ethyl-1,4-dihydro-4-oxo-1,8-naphthyridine-3-carboxamide]
[1]
  minimal effective concentration: < 0.1 µM

## CCn1cc(C(=O)N2CCN(C)CC2)c(=O)c2cc(NC3Cc4ccccc4C3)cnc21 [Example 2, Methylpiperazino 6-(2,3-dihydro-1H-inden-2-ylamino)-1-ethyl-1,4-dihydro-4-oxo-1,8-naphthyridine-3-carboxamide]
[1]
  minimal effective concentration: < 0.1 µM

## CCn1cc(C(=O)Nc2ccc(-c3ccccc3)cc2)c(=O)c2cc(NC3Cc4ccccc4C3)cnc21 [Example 6, 4-biphenylamino-6-(2,3-dihydro-1H-inden-2-ylamino)-1-ethyl-1,4-dihydro-4-oxo-1,8-naphthyridine-3-carboxamide]
[1]
  minimal effective concentration: < 0.1 µM

## CCOC(=O)c1cn(CC)c2ncc(NC(=O)C(C)C)cc2c1=O [Example 7, Ethyl 6-(isobutyrylamide)-1-ethyl-1,4-dihydro-4-oxo-1,8-naphthyridine-3-carboxylate]
[1]
  minimal effective concentration: < 0.1 µM

## CCOC(=O)c1cn(CC)c2ncc(N)cc2c1=O [Example 1f, Ethyl 1-ethyl-1,4-dihydro-6-amino-4-oxo-1,8-naphthyridine-3-carboxylate]
[1]
  minimal effective concentration: < 0.1 µM

## S=C([S-])OC1CC2CC1C1CCCC21.[K+] (centres unmarked) [Example D609, reference compound]
[1]
  block of Compound 1-induced enhancement of neurite outgrowth by PLC inhibitor: blocked; also recorded: significant and dose-dependant reduction
  effect on neurite outgrowth, substance alone: enhanced neurite outgrowth
